Source: US11117918B2, “Enzyme-directed immunostimulant and uses thereof” (Washington State University, priority 2016, dated 2021)

System: RAW-Blue cells
Assay: Inverse RAW-Blue assay after conversion by α-Mannosidase or AT3B-1 cells
Type: cell-based
Procedure: α-Mannosidase from Canavalia ensiformis (Jack bean) was used directly from the bottle to make a 1 U/mL stock solution in DPBS. Before administering the enzyme, the solution was filtered through a sterile 0.2 μm syringe filter to yield the working stock solution. 20 μL of the working stock solution was added to wells requiring exogenous enzyme to achieve a 0.1 U/mL α-Mannosidase concentration.
For inverse RAW-Blue assays, pro-immunostimulant (12) was first converted to Imiquimod by either exogenous α-Mannosidase (0.1 U/well) or via AT3B-1 cell metabolism prior to RAW-Blue exposure. To accomplish this, pro-immunostimulant (12) and controls were dosed at a concentration 10× the desired concentration to be administered to immune cells. For instance, to investigate the effects on RAW-Blue stimulation of a 10 μM dose of pro-immunostimulant […] the following steps would be taken: First, in an optically clear bottomed 96-well plate, wells were prepared to contain 180 μL of complete AT3B-1 cell media (without doxorubicin) and either α-Mannosidase or the desired AT3B-1 cell density (cells were given a minimum of 60 mins to adhere). Second, a 100 μM dose of (12) in DPBS was administered to the wells and total well volumes were adjusted to 200 μL with complete cell media (without doxorubicin). Cells were incubated (37° C., 5% CO2) for 24-72 h. […]

CC(C)Cn1cnc2c(NC(=O)OCc3ccc(O[C@H]4O[C@H](CO)[C@@H](O)[C@H](O)[C@@H]4O)c([N+](=O)[O-])c3)nc3ccccc3c21 [compound 12]
immunogenicity (RAW-Blue activation) (10 μM, exogenous α-Mannosidase and AT3B-1 driven conversion to Imiquimod): confers immunogenicity
RAW-Blue activity (without a conversion driver): abrogated activity
